# Test system: PC biosynthesis in pem1Δpem2Δ-pYES2.1-PvPMT
# Assay: phospholipid analysis of yeast pem1Δpem2Δ strain expressing PvPMT
# Type: cell-based
# Settings: 200 μM AQ
# Protocol: Figure 6 PMT-dependent inhibition of PC biosynthesis by AQ and NSC158011. To assess the effect of AQ on phospholipid metabolism, […] and wild-type strains were grown in minimal medium containing 4% galactose and 2 mM ethanolamine in the absence or presence of 200 μM AQ, lipids were extracted and separated by TLC (A). Each lipid class was scrapped off the TLC plate and quantified by measuring phosphorus (B). The effect of NSC158011 on phospholipid biosynthesis was determined by [33P] orthophosphoric acid labeling as described in Material and Methods. Lipids were separated by TLC (C) and quantified by liquid scintillation spectrometry (D). For all assays, data were used to calculate the PC/PI + PA ratio. The data are represented as the mean ± S.D. of at least two independent experiments.
# BY4741-pYes2.1 (wild-type) strains and the pem1Δpem2Δ strains harboring pYES2.1 vector, pYES2.1-PkPMT, pYES2.1-PvPMT or pYES2.1-PfPMT were pre-grown to mid-log phase at 30°C in SG-URA medium supplemented with Etn (2 mM) and Cho (2 mM). […] Each lipid class was excised from the plate and quantified by measuring phosphorus. […] After the growth, lipids were extracted and analyzed as described above. […] The resolved radioactive lipids were visualized by Phosphorimager (GE Typhoon) and quantified by liquid scintillation spectrometry as described.
smiles,measurement,value
"CCN(CC)Cc1cc(Nc2ccnc3cc(Cl)ccc23)ccc1O [AQ, amodiaquine]",effect on the synthesis of PE,little to no effect

# Reference: paper PMC4357015, “Structure, Function and Inhibition of the Phosphoethanolamine Methyltransferases of the Human Malaria Parasites Plasmodium vivax and Plasmodium knowlesi” (Scientific Reports, 2015)
